Experiments:
tau aggregates (Tau-412) = target: T1, tau aggregates (Tau-412) (Homo sapiens, UniProt P10636); experiment: In vitro binding assay with aggregated tau (fluorescence); conditions: for Kd: aggregated tau 10 μg/sample, 1 h at RT, triplicate; for Selectivity Tau: Aβ1-40: ratio of Kd Aβ1-40 to Kd tau
T1 construct: purchased Stratech
Protocol: Tau protein (Tau-412 with 2 nucleotide-binding motifs and 4 repeat binding regions, 42.9 kDa, 1 mg/ml, Stratech) was incubated in the presence of heparin (0.1 mg/ml) for 72 h at 37° C. with continuous shaking to generate tau aggregates.
(§1) The two test compounds 18 (see Example 6) and 20 (see Example 5), were dissolved and serially diluted in DMSO. Samples with aggregated tau and Aβ1-40 (10 μg/sample) were incubated with a serial dilution of each test compound (concentration range 1 nM-100 μM) in 96-well plates for 1 h at RT. Following incubation, samples were transferred to spin column plates (Thermo Fisher) and then centrifugated for 2 min at 1,500×g to remove free compound from the samples. Finally, the samples were transferred to black 96-well plates, and the fluorescence intensity measured at […] using a Tecan plate reader. All experiments were performed in triplicate. Kd values for each compound was calculated by fitting the data to a non-linear binding curve using Prism (GraphPad).

Aβ1-40 aggregates = target: T2, Aβ1-40 aggregates (Homo sapiens, UniProt P05067); experiment: In vitro binding assay with aggregated Aβ1-40 (fluorescence); conditions: aggregated Aβ1-40 10 μg/sample, 1 h at RT, triplicate
T2 construct: Aβ1-40 protein (4.3 kDa, 1 mg/ml, Invitrogen); purchased Invitrogen
T2 sequence (P05067 672-711 limits assumed): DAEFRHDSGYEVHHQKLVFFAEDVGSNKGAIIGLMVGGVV
Protocol: as §1, with “Aβ1-40 protein (4.3 kDa, 1 mg/ml, Invitrogen) was incubated at room temperature (RT) for 72 h with continuous shaking to generate Aβ1-40 aggregates. The two” for “The two”

insoluble tau aggregates = conditions: J Med Chem, 2009, 52, 3539; cited from earlier work

T1 sequence (P10636 1-412 isoform P10636-7): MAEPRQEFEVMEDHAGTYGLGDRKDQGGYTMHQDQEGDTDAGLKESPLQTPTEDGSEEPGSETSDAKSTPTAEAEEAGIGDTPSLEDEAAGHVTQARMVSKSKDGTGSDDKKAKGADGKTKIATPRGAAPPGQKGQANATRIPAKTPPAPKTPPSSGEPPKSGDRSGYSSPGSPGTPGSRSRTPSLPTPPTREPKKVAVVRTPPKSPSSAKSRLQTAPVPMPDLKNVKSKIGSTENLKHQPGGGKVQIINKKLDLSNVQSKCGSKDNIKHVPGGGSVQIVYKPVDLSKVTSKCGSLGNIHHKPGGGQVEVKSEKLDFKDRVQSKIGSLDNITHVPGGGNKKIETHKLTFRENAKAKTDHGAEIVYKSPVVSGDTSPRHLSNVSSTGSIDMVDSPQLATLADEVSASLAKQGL

Row | Selectivity for aggregated tau compared to Aβ1-40 aggregates (in words) (tau aggregates (Tau-412)) | Kd (tau aggregates (Tau-412)) [µM] | Selectivity Tau: Aβ1-40 (tau aggregates (Tau-412)) | Kd (Aβ1-40 aggregates) [µM] | Compound | Tau aggregation inhibition (in words) (insoluble tau aggregates)
1 | highly selective | 0.00088 ± 0.0009 | 33,863 | 29.8 ± 21.3 | COc1ccc2c(c1)N(CCF)/C(=C/C(C)=C/c1sc3ccc(OC)cc3[n+]1CCF)S2 [Compound 18, 3-(2-Fluoroethyl)-2-((1E,3Z)-3-(3-(2-fluoroethyl)-5-methoxybenzo[d]thiazol-2(3H)-ylidene)-2-methylprop-1-en-1-yl)-5-methoxybenzo[d]thiazol-3-ium] | –
2 | highly selective | 0.00075 ± 0.00059 | 20,800 | 15.6 ± 8.1 | COc1ccc2c(c1)N(CCO)/C(=C/C(C)=C/c1sc3ccc(OC)cc3[n+]1CCF)S2 [Compound 20, 3-(2-Fluoroethyl)-2-((1E,3Z)-3-(3-(2-hydroxyethyl)-5-methoxybenzo[d]thiazol-2(3H)-ylidene)-2-methylprop-1-en-1-yl)-5-methoxybenzo[d]thiazol-3-ium] | –
3 | – | – | – | – | CCC(/C=C1\Sc2ccc(OC)cc2N1CCO)=C\c1sc2ccc(OC)cc2[n+]1CCO [Compound N744] | potent tau aggregation inhibitors

Source: US20130230460A1, “USE OF CYANINE DYES FOR THE DETECTION OF TAU FOR DIAGNOSIS OF EARLY-STAGE TAUOPATHIES” (GE HEALTHCARE LIMITED, priority 2010, published 2013)
